Source: PubChem BioAssay AID248 (DTP/NCI, 2004)
Values joined by “and” are separate entries in the source; they are usually repeats but may differ in a detail not shown here. Equal entries are not always repeated. Toxic doses and inconclusive results are not listed.

Tested on: L1210 leukemia ip in BDF1 mice, survival T/C
Assay: NCI In Vivo Anticancer Drug Screen. Data for tumor model L1210 Leukemia (intraperitoneal) in B6D2F1 (BDF1) mice
Details: endpoint: mean survival time, higher = longer survival
Summary of the method: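 Mice bearing the transplanted tumor received compound or vehicle. Survival of the treated group was divided by that of the vehicle-treated control group to give the ratio.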

[1] = dose: 100.0 mg/kg/injection, schedule: Q04DX003 (ip), vehicle: saline
[2] = dose: 200.0 mg/kg/injection, schedule: Q04DX003 (ip), vehicle: saline
[3] = dose: 400.0 mg/kg/injection, schedule: Q04DX003 (ip), vehicle: saline
[4] = dose: 100.0 mg/kg/injection, schedule: Q04DX002 (ip), vehicle: Klucel (hydroxypropylcellulose) (HPC)
[5] = dose: 200.0 mg/kg/injection, schedule: Q04DX002 (ip), vehicle: Klucel (hydroxypropylcellulose) (HPC)
[6] = dose: 400.0 mg/kg/injection, schedule: Q04DX002 (ip), vehicle: Klucel (hydroxypropylcellulose) (HPC)
[7] = dose: 100.0 mg/kg/injection, schedule: Q01DX001 (ip), vehicle: saline
[8] = dose: 200.0 mg/kg/injection, schedule: Q01DX001 (ip), vehicle: saline
[9] = dose: 400.0 mg/kg/injection, schedule: Q01DX001 (ip), vehicle: saline
[10] = dose: 100.0 mg/kg/injection, schedule: Q01DX009 (ip), vehicle: saline with Tween-80
[11] = dose: 100.0 mg/kg/injection, schedule: Q01DX009 (ip), vehicle: saline
[12] = dose: 200.0 mg/kg/injection, schedule: Q01DX009 (ip), vehicle: saline
[13] = dose: 400.0 mg/kg/injection, schedule: Q01DX009 (ip), vehicle: saline
[14] = dose: 100.0 mg/kg/injection, schedule: Q04DX003 (ip), vehicle: saline with Tween-80
[15] = dose: 200.0 mg/kg/injection, schedule: Q01DX009 (ip), vehicle: saline with Tween-80
[16] = dose: 200.0 mg/kg/injection, schedule: Q04DX003 (ip), vehicle: saline with Tween-80
[17] = dose: 400.0 mg/kg/injection, schedule: Q01DX009 (ip), vehicle: saline with Tween-80
[18] = dose: 400.0 mg/kg/injection, schedule: Q04DX003 (ip), vehicle: saline with Tween-80

With `NC1C(O)C(O)C(Nc2ncnc3nc[nH]c23)OC1C(O)CO` (stereo not given) the T/C (dose: 0.44 mg/kg/injection, schedule: Q## X000 (ip), vehicle: carboxymethylcellulose (CMC)) was 98 % of control, the T/C (dose: 0.66 mg/kg/injection, schedule: Q## X000 (ip), vehicle: carboxymethylcellulose (CMC)) was 100 % of control and the T/C (dose: 1.0 mg/kg/injection, schedule: Q## X000 (ip), vehicle: carboxymethylcellulose (CMC)) was 100 % of control. For the same molecule, the T/C (dose: 1.5 mg/kg/injection, schedule: Q01DX009 (ip), vehicle: saline) was 104 % of control, the T/C (dose: 1.5 mg/kg/injection, schedule: Q## X000 (ip), vehicle: carboxymethylcellulose (CMC)) was 100 % of control and the T/C (dose: 3.0 mg/kg/injection, schedule: Q01DX001 (ip), vehicle: saline) was 107 % of control. The T/C (dose: 3.0 mg/kg/injection, schedule: Q01DX009 (ip), vehicle: saline) was 103 % of control, the T/C (dose: 6.0 mg/kg/injection, schedule: Q01DX001 (ip), vehicle: saline) was 107 % of control and the T/C (dose: 6.0 mg/kg/injection, schedule: Q01DX009 (ip), vehicle: saline) was 101 % of control. The T/C (dose: 12.0 mg/kg/injection, schedule: Q01DX001 (ip), vehicle: saline) was 107 % of control, the T/C (dose: 12.0 mg/kg/injection, schedule: Q01DX009 (ip), vehicle: saline) was 98 % of control and the T/C (dose: 24.0 mg/kg/injection, schedule: Q01DX001 (ip), vehicle: saline) was 104 % of control. For the same molecule, the T/C (dose: 24.0 mg/kg/injection, schedule: Q01DX009 (ip), vehicle: saline) was 101 % of control, the T/C (dose: 35.0 mg/kg/injection, schedule: Q01DX009 (ip), vehicle: saline) was 95 % of control and the T/C (dose: 48.0 mg/kg/injection, schedule: Q01DX001 (ip), vehicle: saline) was 103 % of control. For the same molecule, the T/C (dose: 55.0 mg/kg/injection, schedule: Q01DX009 (ip), vehicle: saline) was 97 % of control, the T/C (dose: 75.0 mg/kg/injection, schedule: Q01DX001 (ip), vehicle: saline) was 96 % of control and the T/C (dose: 80.0 mg/kg/injection, schedule: Q01DX009 (ip), vehicle: saline) was 97 % of control. The T/C (dose: 110.0 mg/kg/injection, schedule: Q01DX001 (ip), vehicle: saline) was 98 % of control, the T/C (dose: 165.0 mg/kg/injection, schedule: Q01DX001 (ip), vehicle: saline) was 101 % of control and the T/C (dose: 245.0 mg/kg/injection, schedule: Q01DX001 (ip), vehicle: saline) was 95 % of control. For the same molecule, the T/C (dose: 370.0 mg/kg/injection, schedule: Q01DX001 (ip), vehicle: saline) was 103 % of control.
`Cc1cc(C)n(/N=C/c2ccc(N(C)C)cc2)c(=O)c1C#N` was tested, and the T/C [1] was 95 % of control, the T/C [2] was 95 % of control and the T/C [3] was 95 % of control.
With `COP(=O)(CN1C(=O)c2ccccc2C1=O)c1ccccc1` (stereo not given) the T/C [4] was 94 % of control, the T/C [5] was 94 % of control and the T/C [6] was 101 % of control.
In the case of `Cn1c(=O)c2[nH]c(CCC3CCCC3)nc2n(C)c1=O`, the T/C (dose: 50.0 mg/kg/injection, schedule: Q01DX001 (ip), vehicle: saline) is reported as 98 % of control, the T/C [7] is reported as 96 % of control and the T/C [8] is reported as 96 % of control. For the same molecule, the T/C [9] was 101 % of control.
In the case of `COC1=CC(=O)C(C2CC(=O)c3c(O)cc(O)cc3O2)=CC1=O` (stereo not given), the T/C (dose: 25.0 mg/kg/injection, schedule: Q01DX009 (ip), vehicle: saline with Tween-80) is reported as 92 % of control, the T/C (dose: 50.0 mg/kg/injection, schedule: Q01DX009 (ip), vehicle: saline with Tween-80) is reported as 98 % of control and the T/C [10] is reported as 103 % of control.
For `Cc1ccc2[nH]c(CC#N)cc2c1`, the T/C [4] was 104 % of control, the T/C [5] was 93 % of control and the T/C [6] was 100 % of control.
For `Cc1cccc(Nc2cc(C)nc(N)n2)c1`, the T/C (dose: 25.0 mg/kg/injection, schedule: Q01DX Z (ip), vehicle: methylcellulose (MC)) was 105 % of control and the T/C (dose: 50.0 mg/kg/injection, schedule: Q01DX Z (ip), vehicle: methylcellulose (MC)) was 100 % of control.
`Nc1ccc(C(=O)CC(N)C(=O)O)cc1O` (stereo not given) was tested, and the T/C (dose: 100.0 mg/kg/injection, schedule: Q01DX001 (ip), vehicle: carboxymethylcellulose (CMC)) was 112 % of control, the T/C (dose: 200.0 mg/kg/injection, schedule: Q01DX001 (ip), vehicle: carboxymethylcellulose (CMC)) was 91 % of control and the T/C (dose: 400.0 mg/kg/injection, schedule: Q01DX001 (ip), vehicle: carboxymethylcellulose (CMC)) was 100 % of control.
`CC(=O)OC1CCCOC1OC(C)=O` (stereo not given) was tested, and the T/C [7] was 99 % of control, the T/C [11] was 106 % of control and the T/C [8] was 100 % of control. For the same molecule, the T/C [12] was 100 % of control, the T/C [9] was 94 % of control and the T/C [13] was 95 % of control.
In the case of `CN1C(=O)CCN(CCN2CCC(=O)N(C)C2=S)C1=S`, the T/C [4] is reported as 114 % of control, the T/C [5] is reported as 103 % of control and the T/C [6] is reported as 96 % of control.
`CC1CC=CCC1COC(=O)C(=O)OCC1CC=CCC1C` (stereo not given) was tested, and the T/C [10] was 98 % of control, the T/C [14] was 101 % of control and the T/C [15] was 95 % of control. The T/C [16] was 97 % of control, the T/C [17] was 95 % of control and the T/C [18] was 95 % of control.
For `O=NN(CCCl)C(=O)NC1CCC(CC(=O)O)CC1` (stereo not given), the T/C (dose: 3.5 mg/kg/injection, schedule: Q01DX001 (ip), vehicle: Klucel (hydroxypropylcellulose) (HPC)) was 114 % of control, the T/C (dose: 5.3 mg/kg/injection, schedule: Q01DX001 (ip), vehicle: Klucel (hydroxypropylcellulose) (HPC)) was 171 % of control and the T/C (dose: 12.0 mg/kg/injection, schedule: Q01DX001 (ip), vehicle: Klucel (hydroxypropylcellulose) (HPC)) was 235 % of control and 536 % of control. For the same molecule, the T/C (dose: 15.0 mg/kg/injection, schedule: Q01DX001 (ip), vehicle: carboxymethylcellulose (CMC)) was 151 % of control and 178 % of control, the T/C (dose: 18.0 mg/kg/injection, schedule: Q01DX001 (ip), vehicle: Klucel (hydroxypropylcellulose) (HPC)) was 352 % of control and 377 % of control and the T/C (dose: 18.0 mg/kg/injection, schedule: Q01DX001 (ip), vehicle: carboxymethylcellulose (CMC)) was 403 % of control. For the same molecule, the T/C (dose: 23.0 mg/kg/injection, schedule: Q01DX001 (ip), vehicle: carboxymethylcellulose (CMC)) was 336 % of control and 351 % of control, the T/C (dose: 26.0 mg/kg/injection, schedule: Q01DX001 (ip), vehicle: Klucel (hydroxypropylcellulose) (HPC)) was 352 % of control and 439 % of control and the T/C (dose: 26.0 mg/kg/injection, schedule: Q01DX001 (ip), vehicle: carboxymethylcellulose (CMC)) was 454 % of control. For the same molecule, the T/C (dose: 34.0 mg/kg/injection, schedule: Q01DX001 (ip), vehicle: carboxymethylcellulose (CMC)) was 445 % of control and 454 % of control, the T/C (dose: 40.0 mg/kg/injection, schedule: Q01DX001 (ip), vehicle: Klucel (hydroxypropylcellulose) (HPC)) was 319 % of control and 381 % of control and the T/C (dose: 40.0 mg/kg/injection, schedule: Q01DX001 (ip), vehicle: carboxymethylcellulose (CMC)) was 418 % of control. The T/C (dose: 51.0 mg/kg/injection, schedule: Q01DX001 (ip), vehicle: carboxymethylcellulose (CMC)) was 413 % of control and 476 % of control, the T/C (dose: 60.0 mg/kg/injection, schedule: Q01DX001 (ip), vehicle: Klucel (hydroxypropylcellulose) (HPC)) was 111 % of control and 202 % of control and the T/C (dose: 60.0 mg/kg/injection, schedule: Q01DX001 (ip), vehicle: carboxymethylcellulose (CMC)) was 102 % of control. The T/C (dose: 77.0 mg/kg/injection, schedule: Q01DX001 (ip), vehicle: carboxymethylcellulose (CMC)) was 175 % of control and 258 % of control.
In the case of `COc1ccc(/C=C2\CCC3C(CCCC34OCCO4)C2=O)cc1` (stereo not given), the T/C [11] is reported as 88 % of control, the T/C [1] is reported as 101 % of control and the T/C [12] is reported as 101 % of control. The T/C [2] was 97 % of control, the T/C [13] was 104 % of control and the T/C [3] was 99 % of control.
For `CCOC(=O)CCN(CCC(=O)OCC)C(C)C`, the T/C [10] was 100 % of control, the T/C [14] was 101 % of control and the T/C [15] was 90 % of control. For the same molecule, the T/C [16] was 101 % of control, the T/C [17] was 98 % of control and the T/C [18] was 101 % of control.
`CCOC(=O)C(Cc1c[nH]c2ccccc12)[N+](=O)[O-]` (stereo not given) was tested, and the T/C (dose: 100.0 mg/kg/injection, schedule: Q04DX003 (sc), vehicle: olive oil, sesame oil, peanut oil) was 97 % of control, the T/C (dose: 200.0 mg/kg/injection, schedule: Q04DX003 (sc), vehicle: olive oil, sesame oil, peanut oil) was 98 % of control and the T/C (dose: 400.0 mg/kg/injection, schedule: Q04DX003 (sc), vehicle: olive oil, sesame oil, peanut oil) was 101 % of control.
For `CC1OCC2OC(C)OC(C(COC(c3ccccc3)(c3ccccc3)c3ccccc3)OS(C)(=O)=O)C2O1` (stereo not given), the T/C [11] was 101 % of control, the T/C [1] was 102 % of control and the T/C [12] was 106 % of control. The T/C [2] was 98 % of control, the T/C [13] was 88 % of control and the T/C [3] was 93 % of control.
